Source: PubChem BioAssay (NCI)
“And” between values parts separate entries of the source, which are not always exact repeats. Equal entries are not always repeated.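 Results reflect a 48-hour exposure of cells in 96-well plates to compound at five concentrations. At the GI50, growth is halved. The concentration for full growth arrest is given as TGI.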

Tests used:
Test in all cases: NCI tumour cell line growth inhibition, 48 h
DMS 114 small cell lung = tested on: DMS 114 small cell lung
DLD-1 colon = tested on: DLD-1 colon
KM20L2 colon = tested on: KM20L2 colon
M19-MEL melanoma = tested on: M19-MEL melanoma
LXFL 529 NSCLC = tested on: LXFL 529 NSCLC
DMS 273 small cell lung = tested on: DMS 273 small cell lung
P388/ADR leukemia = tested on: P388/ADR leukemia
SN12K1 renal = tested on: SN12K1 renal
HOP-18 NSCLC = tested on: HOP-18 NSCLC
P388 leukemia = tested on: P388 leukemia
RXF-631 renal = tested on: RXF-631 renal

| SMILES | TGI (DMS 114 small cell lung) | TGI (DLD-1 colon) | TGI (KM20L2 colon) | TGI (M19-MEL melanoma) | TGI (LXFL 529 NSCLC) | TGI (DMS 273 small cell lung) | GI50 (P388/ADR leukemia) | TGI (P388/ADR leukemia) | GI50 (DLD-1 colon) | GI50 (SN12K1 renal) | TGI (SN12K1 renal) | GI50 (HOP-18 NSCLC) | TGI (HOP-18 NSCLC) | GI50 (DMS 273 small cell lung) | GI50 (KM20L2 colon) | GI50 (M19-MEL melanoma) | GI50 (P388 leukemia) | TGI (P388 leukemia) | TGI (RXF-631 renal) |
| --- | --- | --- | --- | --- | --- | --- | --- | --- | --- | --- | --- | --- | --- | --- | --- | --- | --- | --- | --- |
| Cn1c(=O)n(CC2CS2)c2ccccc21 (stereo not drawn) | > 100 µM | > 100 µM | > 100 µM | > 100 µM | > 100 µM | > 100 µM |  |  |  |  |  |  |  |  |  |  |  |  |  |
| CCC1(OC(=O)CN)C(=O)OCc2c1cc1n(c2=O)Cc2cc3cc4c(cc3nc2-1)OCO4 (stereo not drawn) |  | 40.5 µM and > 100 µM |  | 1.04 µM and 0.416 µM |  | 0.0656 µM and 0.358 µM | < 0.01 µM | < 0.01 µM | 0.278 µM and 0.203 µM | < 0.01 µM | 0.225 µM and 1.04 µM | 0.166 µM and 0.0534 µM | 2.63 µM and 2.24 µM | < 0.01 µM |  |  |  |  |  |
| Cc1nc2c(n1-c1ccccc1)C(=O)c1ccccc1C2=O | 61.3 µM | > 100 µM |  | 40.4 µM |  | > 100 µM |  |  |  |  |  |  |  |  |  |  |  |  |  |
| CS(=O)(=O)[O-].CS(=O)(=O)[O-].NC1CCCCC1N.[Pt+4] (stereo not drawn) |  | > 100 µM | > 100 µM | > 100 µM |  |  | 43 µM | > 100 µM | > 100 µM | > 100 µM | > 100 µM | > 100 µM | > 100 µM |  | > 51.3 µM | 34.2 µM | 4.81 µM | > 55.7 µM |  |
| CCN(CC)/[N+]([O-])=N/O |  |  | > 100 µM | > 100 µM | > 100 µM | > 100 µM |  |  |  |  |  |  |  |  |  |  |  |  | > 100 µM |
| C=CCCCCn1c2ccccc2c2c(C)c3cnccc3c(C)c21 | 16.8 µM | 29.9 µM | 31.9 µM |  |  | 20.5 µM |  | 15.8 µM |  |  | 44.3 µM |  | 35.6 µM |  |  |  |  | 10.2 µM |  |
